Results taken from US20160022762A1, “Agent for Eliminating Multidrug Resistance” (priority 2008, published 2016).
“Also recorded” adds a separate entry of the source. Values belong to the compound of their own block, whether it stands above or below them. Peptide text beside a SMILES is read from it.

Legend:
[1] = solubility of the active principle; assay type: physicochemical
[2] = test system: multidrug resistance proteins in the Hep-2 cells; test: calcein formation rate in Hep-2 cells with Co2+ ions; assay type: cell-based, human; parameters: calcein formation rate increment ratio: dose or concentration left out as unconfirmed; details: Co2+ ions present
[3] = test system: human laryngeal cancer cells Hep-2; test: survival of Hep-2 cells exposed to arsenate (crystal violet); assay type: cell-based
Description: The human laryngeal cancer cells Hep-2 in Dulbecco's modified Eagle's medium (hereinafter referred to as DMEM) (Sigma) supplemented with 10% foetal calf serum (Sigma) and 40 μg/ml of gentamycin (Sigma) were sown in a 96-well culture plate, 0.1 ml per well, at a concentration of 50,000/ml, followed by adding the agents being examined and incubating for 72 hour at 37° C. in an atmosphere of 5% CO2 in air. After incubation, the cells were stained with 0.02% crystal violet solution (Sigma) in 20% ethanol for 10 minutes followed by discarding the stainer solution, washing the cells with water and adding a 0.1% SDS solution for the extraction of the stainer from the cells. The optical density was measured at 570 nm on the spectrophotometer Multiscan Plus. The effect was determined by the formula: No/Nk=(Do−D)/(Dk−D) 100%, where Do, Dk, D are optical densities in the experiment, control, and the background one, respectively, and No/Nk is the cell survival rate: the number of the live cells in the experiment in relation to the control.

Hep-2 cells = test: growth of Hep-2 tumour cells (trypan blue count); assay type: cell-based, human; details: 1 μg/ml, three days
Description: Human laryngeal cancer cells Hep-2 in DMEM medium supplemented with 10% foetal calf serum and 40 μg/ml gentamycin were inoculated in 2-ml penicillin-containing vials, 200 thousand per each vial. The hexapeptide at a dose of 1 μg/ml was added 3 hours after cell inoculation (when they had already adhered to glass) and left in the medium for the whole period of incubation. Three days after inoculation, the cells were detached from glass with trypsin, followed by calculating the number of the living cells: unstained with a 0.04% solution of trypan blue.

local irritating effect = details: in vivo
[4] = preclinical and clinical studies: toxic reaction and side effects; assay type: in vivo
[5] = test system: stage III cervical carcinoma; test: clinical case, chemoradiotherapy with hexapeptide (Example 5); assay type: in vivo, human
Description: Patient. Clinical diagnosis: stage III cervical carcinoma (T3NX-1M0). Examination of the patient included clinical and laboratory assessment both at admission and during treatment. […] general condition was of moderate severity. […] The percentage of CD3, CD4, CD8, CD16-positive cells was decreased relative to the average statistical normal values 2-fold. The person prior to antineoplastic treatment had received a course of 5-time administration of the hexapeptide in the form of 1 ml of 0.005% solution subcutaneously daily for 5 days. Chemoradiotherapy was carried out according to the regimen: 500 mg of 5-fluorouracil (total dose 2,500 mg). During the whole course of chemoradiotherapy, the person received 1 ml of 0.005% solution of the hexapeptide (biopoetin) 5 times daily. Two days after discontinuation of 5-fluorouracil, the patient underwent remote irradiation at a single dose of 4 Gy on the background of intravenous administration of 30 mg of cysplastin for 3 days (total dose of cysplastin amounting to 90 mg). Then radiotherapy was continued in the mode of a daily multifractionated dose. Irradiation was carried out up to a focal dose of 20 Gy onto the area of the primary focus and zones of regional metastatic spreading, followed by additional intracavitary gamma-therapy (10 fractions 5 Gy each) and remote irradiation was continued onto the zones of parametrial metastatic spreading up to the total dose amounting to 44 Gy.

[6] = test system: stage III oesophageal cancer; assay type: in vivo, human
Description: Clinical diagnosis: stage III oesophageal cancer (T3-4N0-2MOP3). At admission, the patient's general condition of moderate severity. The laboratory indices of the total blood count without pronounced alterations. Noted was a considerable disbalance of the indices of the oxidative-antioxidative system on the background moderate-degree immunosuppression. The state of the oxidative-antioxidative system in the patients was assessed by intensity of lipid peroxidation via measuring blood serum concentration of malonic dialdehyde (MDA, μmol/L) and endogenous antioxidants: lactoferrin (LF, mg/L), caeruloplasmin (CP, conventional units), and the antioxidant enzyme catalase (CAT, conventional units). The analysis of percentage content of the main subpopulations of T-lymphocytes was carried out to superficial receptors of CD3 (T-lymphocytes), CD4 (T-helpers/inducers), CD8 (T-suppressors/cytotoxic lymphocytes), CD16 (natural killers), CD25 (activated lymphocytes expressing the receptor to interleukin-2), CD72 (B-lymphocytes). […] At the same time, the indices of the lymphocytic link were virtually within the normal values. Since CP and LF are proteins of the acute phase of inflammation, an increase in the blood serum reflected the presence of an inflammatory process accompanying the development of oesophageal cancer. Prior to chemoradiotherapy, the patient received intramuscular administration of the hexapeptide daily at a single dose of 1 ml of 0.1% solution 5 times a day for 5 days. Comprehensive chemoradiotherapy was carried out according to the following regimen: 750 mg of 5-fluorouracil (5-FU) was administered intravenously for 5 days (total dose 3,750 mg), two days after the end of administration of 5-FU, the patients was irradiated according to the regimen of dynamic fractionation of the dose at a single dose of 4 Gy on the background of intravenous administration of cysplastin at a dose of 30 mg for 3 days (total dose of cysplastin 90 mg, total focal dose 12 Gy). During the whole period of chemoradiotherapy, the patients was given hexapeptide at a single dose of 100 μg twice daily (in the morning and evening). Commencing from day 11, radiotherapy was continued in the mode of the classical fractionated dose, with the single dose equalling 2 Gy (total focal dose 40 Gy).

[7] = test system: squamous-cell oesophageal cancer; assay type: in vivo, human
Description: The disease was manifested by retrosternal pain, weakness, weight loss. […] Prior to chemoradiotherapy, the patient was given the hexapeptide in the form of a suppository at a dose of 5 mg five times daily for 5 days. The first stage of combined-modality treatment consisted of two courses of polychemotherapy. During the whole period of chemoradiotherapy, the patient received treatment with the proposed agent in the form of rectal suppositories 5 μg twice daily (in the morning and evening).

breast cancer T4cN2M0 = test: clinical case, radiotherapy and CMF polychemotherapy with hexapeptide intranasal spray (Example 8); assay type: in vivo, human
Description: Onto the area of the left breast from two tangential opposed fields and with the figured field onto the zones of regional lymph outflow on the left radiotherapy was begun using linear accelerator (LU-20-SL with the deceleration-radiation energy of 6 MeV) in the mode of average dose fractionating, at 3 Gy daily 5 times a week onto the area of the tumour up to the total focal dose (TFD) 45 Gy equivalent to the mode of the conventional fractionation consisting of 2 Gy a day, with TFD 60 Gy, and onto the zones of regional lymph outflow on the left (supraclavicular, subclavicular, axillary and parasternal sites) at a single dose of 3 Gy up to the TFD 33-36 Gy equivalent to 44-48 Gy of the conventional fractionation.
The patient's state after the irradiation course was satisfactory, with the tumour ulceration being at the scarring stage and virtually no discharge. Two weeks later, polychemotherapy was begun according to the CMF regimen carried out for 4 weeks once a week. During 5 days prior to commencing chemotherapy, the person daily received the hexapeptide in the form of an intranasal dosed spray […] at a single dose of 100 μg. The CMF regimen included intravenous drip administration of 1 g of 5-fluorouracil and 40 mg of methotrexate and intramuscular administration of 1 g cyclophosphane. During polychemotherapy, the patients daily received the hexapeptide in the form of an intranasal dosed spray, with the single dose equalling 100 μg.
A repeat course of CMF. The patient received intravenously 40 mg of methotrexate and 1 g of 5-fluorouracil and intramuscularly 1 g of cyclophosphane. The state after polychemotherapy was satisfactory. A cicatrix formed on the site of the previous breast ulceration. Regional lymph nodes were not perceived, the breast was soft to the touch, with no fresh infiltrates. On the mammograms, the tumour node as compared with the findings of mammography obtained at the beginning of treatment had decreased to 5 mm in diameter. Then sequentially a course of polychemotherapy was carried out according to the same regimen and in the same doses. During 5 days prior to commencing chemotherapy, the patient daily received hexapeptide in the form of an intranasal dosed spray 5 times a day at a single does of 100 μg. During polychemotherapy, the patient daily received hexapeptide in the form of an intranasal dosed spray 5 times a day at a single does of 100 μg.

[8] = in vivo
[9] = test system: multidrug resistance-associated transport proteins in Hep-2 cells; test: rhodamine 123 efflux rate from Hep-2 cells
Description: While studying the effect of the inhibitors on the release of Rh123, to the cuvette after several minutes of the normal excretion of the stainer we added the inhibitor in the required concentration. Determining the control and inhibited constants of rhodamine excretion rates on one plate decreases the error of determining their ratio, necessary for obtaining the R value. […] The total amount of rhodamine in the cells was determined by the difference of the fluorescence levels after adding digitonin and before adding cells to the cuvette. The relative amount of Rh123 in the cells (N) was determined according to the following formula: N=1−{It−I0/Imax−I0}, where It, I0, Imax are the values of fluorescence of Rh123 in the medium at the time moments t, 0 and the peak fluorescence after adding digitonin, respectively.
The effect of each concentration of the agents on Rh123 excretion was determined in several experiments.

MRP [10] = target: T1, MRP (Mus musculus, UniProt O35379); test: calcein efflux rate from preliminarily calcein-loaded R388VR cells
P-gp = test: calcein formation rate from calcein AM in R388VR cells without Co2+; details: up to 1.2 μM
Description: The rate of calcein formation in the dish with calcein AM added without Co2+ ions makes it possible to determine the activity of the transport proteins expelling calcein AM out of cells, rather than that of the proteins capable of transporting calcein from the cells (MRP), since in this case total calcein is registered: both intra- and extracellular.

MRP [11] = target: T1, MRP; test: calcein formation rate in R388VR cells in the presence of Co2+ (extracellular calcein quenching); details: presence of Co, 12 μM
tumour cells = details: calcium channel blocker; cited from earlier work

T1 sequence (O35379 whole entry): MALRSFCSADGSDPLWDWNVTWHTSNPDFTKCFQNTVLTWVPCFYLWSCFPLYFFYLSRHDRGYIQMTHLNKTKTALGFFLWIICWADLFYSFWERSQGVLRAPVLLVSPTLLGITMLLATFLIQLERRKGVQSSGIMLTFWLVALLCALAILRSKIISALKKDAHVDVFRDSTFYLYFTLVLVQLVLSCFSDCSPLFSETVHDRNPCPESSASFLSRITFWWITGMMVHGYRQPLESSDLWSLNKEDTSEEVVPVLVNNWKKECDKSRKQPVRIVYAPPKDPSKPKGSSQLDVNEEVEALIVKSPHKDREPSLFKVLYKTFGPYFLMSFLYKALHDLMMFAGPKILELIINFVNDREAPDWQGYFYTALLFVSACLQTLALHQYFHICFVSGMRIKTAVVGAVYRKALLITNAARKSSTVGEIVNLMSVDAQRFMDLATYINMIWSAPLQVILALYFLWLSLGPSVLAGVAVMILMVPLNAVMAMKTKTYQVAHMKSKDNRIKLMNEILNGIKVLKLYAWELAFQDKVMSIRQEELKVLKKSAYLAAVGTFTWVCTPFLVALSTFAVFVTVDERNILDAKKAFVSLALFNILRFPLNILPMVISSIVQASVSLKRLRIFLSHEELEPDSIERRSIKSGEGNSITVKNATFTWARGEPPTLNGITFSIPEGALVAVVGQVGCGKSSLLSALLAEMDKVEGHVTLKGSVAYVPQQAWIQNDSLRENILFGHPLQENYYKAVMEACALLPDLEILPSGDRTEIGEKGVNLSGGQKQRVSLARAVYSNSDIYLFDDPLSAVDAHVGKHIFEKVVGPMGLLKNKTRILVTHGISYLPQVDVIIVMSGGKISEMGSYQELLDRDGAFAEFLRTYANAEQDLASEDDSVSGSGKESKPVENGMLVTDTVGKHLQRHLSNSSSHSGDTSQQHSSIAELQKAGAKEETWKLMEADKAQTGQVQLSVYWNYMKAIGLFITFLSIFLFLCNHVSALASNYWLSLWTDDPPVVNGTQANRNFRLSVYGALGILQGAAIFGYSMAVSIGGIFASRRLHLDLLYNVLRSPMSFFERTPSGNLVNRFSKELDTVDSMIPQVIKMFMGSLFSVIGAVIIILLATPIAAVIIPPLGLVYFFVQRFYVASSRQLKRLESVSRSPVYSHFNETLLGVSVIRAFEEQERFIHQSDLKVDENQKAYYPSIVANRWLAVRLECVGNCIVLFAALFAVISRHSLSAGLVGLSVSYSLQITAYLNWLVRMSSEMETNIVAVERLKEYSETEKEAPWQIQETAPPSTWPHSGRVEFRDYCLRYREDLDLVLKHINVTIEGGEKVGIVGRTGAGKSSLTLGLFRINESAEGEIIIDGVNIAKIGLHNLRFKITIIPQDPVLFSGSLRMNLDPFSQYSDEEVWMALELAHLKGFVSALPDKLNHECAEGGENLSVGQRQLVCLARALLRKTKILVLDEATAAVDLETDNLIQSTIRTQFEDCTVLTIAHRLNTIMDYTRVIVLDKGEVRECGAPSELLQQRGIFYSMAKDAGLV

solubility in alcohol ([1]; alcohol): not alcohol- or chloroform-soluble
solubility in chloroform ([1]; chloroform): not alcohol- or chloroform-soluble
solubility in isotonic sodium chloride solution ([1]; isotonic sodium chloride solution): readily soluble
solubility in water ([1]; water): readily soluble
effect on growth of Hep-2 tumour cells (Hep-2 cells): virtually does not influence the growth
indices of immunity and total blood count after chemoradiotherapy [5]: did not virtually alter
indices of natural cellular and T-lymphocytic immunity, acute inflammation phase proteins ([6]; human, in vivo): did not alter substantially
decrease of calcein excretion rate (MRP [10]; 1.2 nM): 1.5 fold
calcein excretion rate inhibition ratio (MRP [10]; 120 nM): 2.6
increase of calcein formation rate (MRP [11]): double
SMILES: NCCCC[C@H](NC(=O)CNC(=O)[C@H](Cc1c[nH]cn1)NC(=O)[C@@H](N)CCCCN)C(=O)N[C@@H](Cc1c[nH]cn1)C(=O)NCC(=O)O [hexapeptide, lysyl-histidyl-glycyl-lysyl-histidyl-glycine] (H-KHGKHG-OH)
calcein formation rate increment ratio [2]: 2.6
increase of rate of calcein formation in cells ([2]; 1.2 nM): twofold
increase in sensitivity of Hep-2 cells to arsenate ([3]; 1.2 nM): 3 fold
effect on sensitivity to arsenate and survival of Hep-2 cells ([3]; 50 μM arsenate): increases sensitivity of the tumour cells to the cytostatic preparation arsenate and inhibits survival of the Hep-2 cells
local irritating effect (local irritating effect): no local irritating effect
allergic activity (allergic activity): neither allergic nor mutagenic activity
mutagenic activity (mutagenic activity): neither allergic nor mutagenic activity
toxic reaction and side effects [4]: neither induces a pronounced toxic reaction nor leads to development of side effects
MDR development [5]: No events of MDR development were observed
tumour outcome [5]: complete resorption of the tumour
side reactions during chemoradiotherapy ([5]; 1 ml of 0.005% solution subcutaneously): No pronounced side reactions were observed
disease relapses ([6]; 12-month follow-up): no disease relapses
symptoms of MDR ([6]; with chemoradiotherapy): No symptoms of MDR were observed
tumour outcome ([6]; with chemoradiotherapy): complete resorption of the tumour
tumour at check-up examinations ([7]; after polychemotherapy): no oesophageal tumour perceived
metastases into lymph nodes ([7]; histology of subtotal oesophageal resection): No metastases into lymph nodes were detected
manifestations of toxicosis during polychemotherapy ([7]; human, in vivo): No markedly pronounced manifestations of toxicosis were observed
development of MDR (breast cancer T4cN2M0; 5th course of CMF): No development of MDR was noted
tumour node diameter on mammograms (breast cancer T4cN2M0; after repeat course of CMF): 5 mm
tumour node size on mammograms (breast cancer T4cN2M0; before fourth course of polychemotherapy): 3.8 cm
relapse or metastases at examination (breast cancer T4cN2M0; clinical and roentgenological study, check-up 15 months after the beginning of treatment): no findings suggesting either a breast tumour relapse or metastases; also recorded: no signs of the disease's relapses
tolerance of chemoradiotherapy / polychemotherapy (breast cancer T4cN2M0; intranasal dosed spray, CMF regimen): tolerated chemoradiotherapy satisfactorily; also recorded: well tolerated
death of laboratory animals after a single dose [8]: caused no death
optimal concentration of maximal inhibition of Rh123 excretion [9]: 1 ng/mL
R value (Rh123 excretion inhibition) ([9]; 1 ng/ml): 3.2
effect on calcein formation rate (P-gp): does not act upon the calcein formation rate

SMILES: COc1ccc(CCN(C)CCCC(C#N)(c2ccc(OC)c(OC)c2)C(C)C)cc1OC (stereo not shown) [verapamil]
dose exhibiting in vitro MDR inhibiting activity (tumour cells): approximately 10 μM
